Data reported in US10219990B2, “Solubilizing agents for UV filters in cosmetic formulations” (BASF SE, priority 2014, dated 2019).

Experiment: Solubility tests of UV filters in solubilizing agents
Format: physicochemical
Details: stirred seven days at 25° C., UV/Vis-spectrometry; for Solubility [%] of UV filter compound of formula (BPH-02) in solubilizing agent: UV filter (BPH-02); for Solubility [%] of UV filter compound of formula (HTP-02) in solubilizing agent: UV filter (HTP-02); for Solubility [%] of UV filter compound of formula (TAT-02) in solubilizing agent: UV filter (TAT-02)
Experimental: 2 ml of the solubilizing agent are filled into a 20 ml vial with cap. Afterwards 0.02 g (1%) of the respective substance (UV Filter) are weighed and added to the solvent. The vial is placed into a thermostat-controlled water bath, wherein the suspension/solution is stirred during seven days at 25° C.
If the substance added to the solubilizing agent is fully soluble, additional substance is added until precipitation can be observed.
After seven days, the sample is centrifuged for 30 minutes at 13000 rpm at 25° C. The supernatant is transferred into a small beaker. In case the sample is still turbid, it is filtered through a 0.2 μm non-steril Membrex 25 PET filter. Clear solutions must not be filtered. When a clear solution is obtained, the concentration of the substance is determined with UV/Vis-spectrometry. For this purpose, the sample may be diluted with a suitable solvent or, in case of lower concentrations, may be measured as it s.
The concentration of the UV-spectroscopic results is measured with the extinction coefficient, which is determined independently with a solvent of similar polarity like that one used for dilution of the saturated solutions.
The solubility can be calculated using the Lambert-Beer-Law equation.

In the case of `CCCCCCCCCC(=O)N(C)C` [Spectrasolv DMDA, reference compound], the “Solubility [%] of UV filter compound of formula (BPH-02) in solubilizing agent” value (shortened to “Solubility [%] … (BPH-02) in solubilizing agent”) was greater than 40%, the “Solubility [%] of UV filter compound of formula (HTP-02) in solubilizing agent” value (shortened to “Solubility [%] … (HTP-02) in solubilizing agent”) was 40% and the “Solubility [%] of UV filter compound of formula (TAT-02) in solubilizing agent” value (shortened to “Solubility [%] … (TAT-02) in solubilizing agent”) was 23%.
With C 23-Guerbet-monolactate the “Solubility [%] … (BPH-02) in solubilizing agent” value was 11.2%, the “Solubility [%] … (HTP-02) in solubilizing agent” value was 2.9% and the “Solubility [%] … (TAT-02) in solubilizing agent” value was 11.9%.
In the case of Iso-C18-monolactate, the “Solubility [%] … (BPH-02) in solubilizing agent” value was 12.2%, the “Solubility [%] … (HTP-02) in solubilizing agent” value was 3.3% and the “Solubility [%] … (TAT-02) in solubilizing agent” value was 13.4%.
